Structures are written as SMILES.

The results in this text go back to article PMC10143825, “ABT-333 (Dasabuvir) Increases Action Potential Duration and Provokes Early Afterdepolarizations in Canine Left Ventricular Cells via Inhibition of IKr” (Pharmaceuticals, 2023).

The target of the test is T1, hERG channel (Homo sapiens, UniProt Q12809).
T1 construct: gene KCNH2
Briefly: cell-based.

T1 sequence (Q12809 whole entry): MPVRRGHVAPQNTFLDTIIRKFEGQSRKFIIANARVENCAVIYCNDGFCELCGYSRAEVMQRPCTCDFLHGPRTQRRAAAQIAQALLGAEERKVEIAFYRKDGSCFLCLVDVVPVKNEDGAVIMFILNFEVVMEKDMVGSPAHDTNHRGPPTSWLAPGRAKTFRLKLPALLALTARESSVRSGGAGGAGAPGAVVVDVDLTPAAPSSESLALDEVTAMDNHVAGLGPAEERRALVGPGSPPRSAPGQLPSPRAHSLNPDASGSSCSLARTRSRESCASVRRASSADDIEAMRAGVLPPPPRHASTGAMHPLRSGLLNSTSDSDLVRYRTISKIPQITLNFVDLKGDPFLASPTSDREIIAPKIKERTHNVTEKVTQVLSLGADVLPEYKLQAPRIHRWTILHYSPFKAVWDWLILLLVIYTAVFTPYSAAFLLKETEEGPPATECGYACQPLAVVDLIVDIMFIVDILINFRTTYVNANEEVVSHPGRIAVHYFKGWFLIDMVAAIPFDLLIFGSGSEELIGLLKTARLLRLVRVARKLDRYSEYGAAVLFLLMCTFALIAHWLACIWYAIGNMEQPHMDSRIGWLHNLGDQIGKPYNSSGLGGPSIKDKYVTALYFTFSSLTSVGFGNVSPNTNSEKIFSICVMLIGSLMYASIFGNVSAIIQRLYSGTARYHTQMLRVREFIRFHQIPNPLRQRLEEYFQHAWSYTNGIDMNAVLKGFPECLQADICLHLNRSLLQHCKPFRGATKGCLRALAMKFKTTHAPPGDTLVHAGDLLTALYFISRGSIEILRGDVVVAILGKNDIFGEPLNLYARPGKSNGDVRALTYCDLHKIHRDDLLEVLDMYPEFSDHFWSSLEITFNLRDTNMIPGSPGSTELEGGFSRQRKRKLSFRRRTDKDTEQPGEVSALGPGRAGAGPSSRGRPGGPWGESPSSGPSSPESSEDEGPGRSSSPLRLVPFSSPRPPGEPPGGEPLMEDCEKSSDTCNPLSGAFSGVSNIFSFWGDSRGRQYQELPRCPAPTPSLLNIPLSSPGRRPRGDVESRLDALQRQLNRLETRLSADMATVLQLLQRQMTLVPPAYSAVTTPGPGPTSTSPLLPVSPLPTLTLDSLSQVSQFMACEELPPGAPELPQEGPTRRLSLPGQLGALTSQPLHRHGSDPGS

For orientation: IC50 means the point on the concentration scale where inhibition reaches its midpoint. A lower IC50 goes with inhibition by little substance. As for `COc1c(-c2ccc3cc(NS(C)(=O)=O)ccc3c2)cc(-n2ccc(=O)[nH]c2=O)cc1C(C)(C)C` [ABT-333], 3.2 µM corresponded to half-maximal inhibition (IC50). This counts as single-digit micromolar.
